# Laboratory results from ChEMBL document CHEMBL3885861, “Open TG-GATES”.
# Organism: Rattus norvegicus
# Experiment: Open TG-GATES - Regimen: Single
# Type: toxicity, organism-based, Sprague-Dawley
# Set-up: regimen Single, gender Male, age 6 weeks
# Details: in vivo, po, 0 mg/kg, route gavage, dose level Control; for APTT / Bas / Eos / Fbg / Hb / Ht / Lym / MCH / MCHC / MCV / Mono / Neu / PT / Plat / RBC / Ret / WBC: tissue Blood; for KIDNEY_L / KIDNEY_R / KIDNEY_TOTAL: tissue Kidney; for LIVER: tissue Liver; for A/G / ALP / ALT / AST / BUN / CRE / Ca / Cl / DBIL / GLC / IP / K / LDH / Na / PL / RALB / TBIL / TC / TG / TP / gamma-GTP: tissue Plasma
structure (smiles),measurement,setting,value
Cn1c(=O)c2[nH]cnc2n(C)c1=O.O [THEOPHYLLINE],TERMINAL_BW,3 h,221.7 g
same,APTT,3 h,22.2 s
same,Bas,3 h,0%
same,Eos,3 h,0.8%
same,Fbg,3 h,289.8 mg/dL
same,Hb,3 h,13.1 g/dL
same,Ht,3 h,39.5%
same,Lym,3 h,83.2%
same,MCH,3 h,20.7 pg
same,MCHC,3 h,33.2%
same,MCV,3 h,62.5 fL
same,Mono,3 h,1.8%
same,Neu,3 h,13.6%
same,PT,3 h,15.5 s
same,Plat,3 h,119 x10_4/uL
same,RBC,3 h,632.2 x10_4/ul
same,Ret,3 h,8.4%
same,WBC,3 h,101.2 x10_2/uL
same,KIDNEY_L,3 h,1 g
same,KIDNEY_R,3 h,1 g
same,KIDNEY_TOTAL,3 h,2 g
same,LIVER,3 h,10.3 g
same,A/G,3 h,1.3
same,ALP,3 h,1309 IU/L
same,ALT,3 h,43.6 IU/L
same,AST,3 h,70 IU/L
same,BUN,3 h,13.8 mg/dL
same,CRE,3 h,0.2 mg/dL
same,Ca,3 h,10.5 mg/dL
same,Cl,3 h,105 meq/L
same,DBIL,3 h,0 mg/dL
same,GLC,3 h,190.4 mg/dL
same,IP,3 h,8.8 mg/dL
same,K,3 h,4.2 meq/L
same,LDH,3 h,179 IU/L
same,Na,3 h,142.6 meq/L
same,PL,3 h,135.8 mg/dL
same,RALB,3 h,3 g/dL
same,TBIL,3 h,0.018 mg/dL
same,TC,3 h,77.4 mg/dL
same,TG,3 h,49.2 mg/dL
same,TP,3 h,5.3 g/dL
same,gamma-GTP,3 h,1.2 IU/L
same,TERMINAL_BW,6 h,213.2 g
same,APTT,6 h,21.5 s
same,Bas,6 h,0%
same,Eos,6 h,0.6%
same,Fbg,6 h,300.6 mg/dL
same,Hb,6 h,13.7 g/dL
same,Ht,6 h,40.9%
same,Lym,6 h,82.2%
same,MCH,6 h,20.8 pg
same,MCHC,6 h,33.4%
same,MCV,6 h,62.3 fL
same,Mono,6 h,2.6%
same,Neu,6 h,13.2%
same,PT,6 h,15.6 s
same,Plat,6 h,118.7 x10_4/uL
same,RBC,6 h,657.2 x10_4/ul
same,Ret,6 h,7.4%
same,WBC,6 h,102.6 x10_2/uL
same,KIDNEY_L,6 h,1 g
same,KIDNEY_R,6 h,1 g
same,KIDNEY_TOTAL,6 h,1.9 g
same,LIVER,6 h,9.1 g
same,A/G,6 h,1.2
same,ALP,6 h,1402.8 IU/L
same,ALT,6 h,39.8 IU/L
same,AST,6 h,75.6 IU/L
same,BUN,6 h,10.8 mg/dL
same,CRE,6 h,0.1 mg/dL
same,Ca,6 h,10.4 mg/dL
same,Cl,6 h,105.8 meq/L
same,DBIL,6 h,0 mg/dL
same,GLC,6 h,183.8 mg/dL
same,IP,6 h,9.3 mg/dL
same,K,6 h,4.4 meq/L
same,LDH,6 h,202 IU/L
same,Na,6 h,142.6 meq/L
same,PL,6 h,124.6 mg/dL
same,RALB,6 h,2.9 g/dL
same,TBIL,6 h,0.024 mg/dL
same,TC,6 h,72.8 mg/dL
same,TG,6 h,48.2 mg/dL
same,TP,6 h,5.4 g/dL
same,gamma-GTP,6 h,1 IU/L
same,TERMINAL_BW,9 h,212.6 g
same,APTT,9 h,22.9 s
same,Bas,9 h,0%
same,Eos,9 h,0.8%
same,Fbg,9 h,310.2 mg/dL
same,Hb,9 h,13.3 g/dL
same,Ht,9 h,39.9%
same,Lym,9 h,77.6%
same,MCH,9 h,20.5 pg
same,MCHC,9 h,33.3%
same,MCV,9 h,61.6 fL
same,Mono,9 h,2.4%
same,Neu,9 h,18%
same,PT,9 h,15.8 s
same,Plat,9 h,119 x10_4/uL
same,RBC,9 h,649.6 x10_4/ul
same,Ret,9 h,7.5%
same,WBC,9 h,79.6 x10_2/uL
same,KIDNEY_L,9 h,1 g
same,KIDNEY_R,9 h,1 g
same,KIDNEY_TOTAL,9 h,2 g
same,LIVER,9 h,8.6 g
same,A/G,9 h,1.2
same,ALP,9 h,1444.4 IU/L
same,ALT,9 h,35.2 IU/L
same,AST,9 h,70.4 IU/L
same,BUN,9 h,12.6 mg/dL
same,CRE,9 h,0.2 mg/dL
same,Ca,9 h,10.8 mg/dL
same,Cl,9 h,105.8 meq/L
same,DBIL,9 h,0 mg/dL
same,GLC,9 h,188 mg/dL
same,IP,9 h,9.2 mg/dL
same,K,9 h,4.3 meq/L
same,LDH,9 h,180.6 IU/L
same,Na,9 h,140.8 meq/L
same,PL,9 h,125.6 mg/dL
same,RALB,9 h,3.1 g/dL
same,TBIL,9 h,0.022 mg/dL
same,TC,9 h,73.2 mg/dL
same,TG,9 h,52.8 mg/dL
same,TP,9 h,5.5 g/dL
same,gamma-GTP,9 h,1 IU/L
same,TERMINAL_BW,24 h,228.3 g
same,APTT,24 h,21.9 s
same,Bas,24 h,0%
same,Eos,24 h,1%
same,Fbg,24 h,291.2 mg/dL
same,Hb,24 h,13.6 g/dL
same,Ht,24 h,40.4%
same,Lym,24 h,82.2%
same,MCH,24 h,20.8 pg
same,MCHC,24 h,33.7%
same,MCV,24 h,61.5 fL
same,Mono,24 h,2.6%
same,Neu,24 h,13%
same,PT,24 h,15.9 s
same,Plat,24 h,115.8 x10_4/uL
same,RBC,24 h,657 x10_4/ul
same,Ret,24 h,6.9%
same,WBC,24 h,97 x10_2/uL
same,KIDNEY_L,24 h,1 g
same,KIDNEY_R,24 h,1 g
same,KIDNEY_TOTAL,24 h,2 g
same,LIVER,24 h,10.4 g
same,A/G,24 h,1.2
same,ALP,24 h,1398.8 IU/L
same,ALT,24 h,40.8 IU/L
same,AST,24 h,69.4 IU/L
same,BUN,24 h,16.6 mg/dL
same,CRE,24 h,0.2 mg/dL
same,Ca,24 h,10.9 mg/dL
same,Cl,24 h,106.2 meq/L
same,DBIL,24 h,0 mg/dL
same,GLC,24 h,193.4 mg/dL
same,IP,24 h,7.7 mg/dL
same,K,24 h,4.3 meq/L
same,LDH,24 h,221 IU/L
same,Na,24 h,143.4 meq/L
same,PL,24 h,151.6 mg/dL
same,RALB,24 h,3 g/dL
same,TBIL,24 h,0.008 mg/dL
same,TC,24 h,80.4 mg/dL
same,TG,24 h,100.2 mg/dL
same,TP,24 h,5.5 g/dL
same,gamma-GTP,24 h,1.2 IU/L
